Data reported in paper PMC3707847 (PLoS ONE, 2013).

Experiments:
[1] = molecular target: T1, recombinant IAV polymerase complex (PA/PB1/PB2) (Influenza A virus, UniProt F6KI70); assay type: biochemical, H3N2 IAV strain (A/chicken/Nanchang/3-120/01); conditions: for Primer extension products opposite C on template: template t14-1, 100 µM nucleotide plus 25 µM CTP and UTP; for Kapp, single NMP incorporation opposite cytidine (N:C): template t14-1, position +10; for Discrimination (Kapp,NTP/Kapp,GTP), opposite cytidine: template t14-1, relative to natural GTP; for Primer extension products opposite U on template: template t14-2, 100 µM nucleotide; for Discrimination (Kapp,NTP/Kapp,ATP), opposite uridine: template t14-2, relative to natural ATP; for Primer extension products with multiple incorporation sites (UCC at +10 to +12): template t14-3, 100 µM nucleotide
[2] = molecular target: T1, recombinant IAV polymerase complex (PA/PB1/PB2); assay type: biochemical, H3N2 IAV strain (A/chicken/Nanchang/3-120/01); conditions: T-705 RTP at 100 µM; for Effect of increasing natural GTP to 300 µM on inhibition of polymerase activity: GTP 300 µM vs low, 3′dGTP data not shown
[3] = system: influenza virus RNP complex (RdRp activity); assay type: biochemical, Influenza virus (A/WSN/33 (H1N1))

| SMILES | Effect of increasing natural GTP to 300 µM on inhibition of polymerase activity [2] | Inhibition of radiolabeled viral RNA synthesis by RNP complex [3] | Primer extension products opposite C on template [1] | Kapp, single NMP incorporation opposite cytidine (N:C) [1] | Discrimination (Kapp,NTP/Kapp,GTP), opposite cytidine [1] | Primer extension products opposite U on template [1] | Kapp, single NMP incorporation opposite uridine (N:U) ([1]; template t14-2, position +10) [µM] | Discrimination (Kapp,NTP/Kapp,ATP), opposite uridine [1] [fold] | Primer extension products with multiple incorporation sites (UCC at +10 to +12) [1] | other results |
| --- | --- | --- | --- | --- | --- | --- | --- | --- | --- | --- |
| Nc1ncnc2c1ncn2[C@@H]1O[C@H](COP(=O)(O)OP(=O)(O)OP(=O)(O)O)C[C@H]1O [3′dATP] |  |  |  |  |  |  |  |  |  | Incorporation by IAVpol in single nucleotide incorporation assay ([1]; data not shown): not significantly incorporated by IAVpol |
| Nc1nc2c(ncn2[C@@H]2O[C@H](COP(=O)(O)OP(=O)(O)OP(=O)(O)O)C[C@H]2O)c(=O)[nH]1 [3′dGTP, 3′-deoxy GTP] | almost completely prevented the inhibition of polymerase activity | progressive inhibition of radio-labeled RNA synthesis | produced only a 10-mer chain termination product |  |  |  |  |  |  |  |
| Nc1ncnc2c1ncn2[C@@H]1O[C@H](COP(=O)(O)OP(=O)(O)OP(=O)(O)O)[C@@H](O)[C@H]1O [ATP] |  |  | mis-incorporation was slightly increased | 2,560±720 µM | 330,000 fold | converted to 14-mer full length product | 0.022 ± 0.003 | 1 | most of the 9-mer was converted to 10-mer | Error rate of RNA synthesis by IAV polymerase, A:C mismatch ([1]; ATP opposite cytidine, calculated from Kapp): 3.1×10^−6; Kapp for ATP opposite uridine as printed in text ([1]; template t14-2, position +10): 0.022 ± 0.003 µM⁻¹; Kapp for ATP incorporation, t14-3 template ([1]; template t14-3, 9-mer to +10 position): 0.038 µM |
| Nc1nc2c(ncn2[C@@H]2O[C@H](COP(=O)(O)OP(=O)(O)OP(=O)(O)O)[C@@H](O)[C@H]2O)c(=O)[nH]1 [GTP] |  |  | converted to the 14-mer full length extension product | 0.0078 ± 0.003 µM | 1 fold | robust 14-mer RNA product | 9.2 ± 0.54 | 420 |  | Error rate of RNA synthesis by IAV polymerase, G:U mismatch ([1]; GTP opposite uridine, calculated from Kapp): 2.4×10^−3 |
| NC(=O)c1nc(F)cn([C@@H]2O[C@H](COP(=O)(O)OP(=O)(O)OP(=O)(O)O)[C@@H](O)[C@H]2O)c1=O [T-705 RTP, T-705 ribofuranosyl 5′-triphosphate] | almost completely prevented the inhibition of polymerase activity | inhibited the RdRp activity of influenza virus vRNPs | conversion of the 9-mer to 14-mer, with an additional 10-mer product |  |  | conversion of the 9-mer to 10- and 14-mer products |  |  | complete inhibition of further nucleotide incorporation | Effect of increasing natural ATP to 300 µM on inhibition ([2]; ATP 300 µM vs 3 µM): same loss of inhibition effect; Effect of CTP and UTP at varying concentrations on inhibition potency ([2]; CTP or UTP 3 or 300 µM): did not change the inhibition potency; Potency relative to 3′dGTP against RNP complex [3]: significantly more potent than 3′dGTP |
